From patent US20240228465A1, “SUBSTITUTED PYRIDINE N-OXIDE DERIVATIVES USEFUL AS A FACTOR XIA INHIBITORS” (Janssen Pharmaceutica NV, priority 2021, published 2024)
Read-outs that look alike come from different tables or passages of the source.

How the values were obtained:
Factor XIa = Factor XIa (Homo sapiens, UniProt P03951); experiment: Factor XIa inhibition assay utilizing a fluorophore-quencher pair peptide substrate (FLINT); format: biochemical
Text: Biological Example 1: Factor XIa Inhibition Assay Utilizing a Fluorophore-Quencher Pair Peptide Substrate
A fluorescence intensity (FLINT) based assay was used to monitor inhibition of Factor XIa. The peptide substrate, 5Fam-KLTRAETV-K5Tamra (purchased from New England Peptide) was chosen based on the […]. Conversion of zymogen […]. The custom peptide used in this assay was based on the Arg146 cleavage site of FXI. The peptide substrate was designed with a fluorophore-quencher pair, where the fluorescence is quenched until FXIa cleaves the 8-mer peptide after the Arg residue. The substrate KM was fit to a substrate inhibition model whereby kcat=0.86 s^−1, KM=12.4 μM, Ki=61.6 μM with an enzymatic efficiency, and kcat/KM=69523 M^−1s^−1.
The Factor XIa FLINT assay was used with the following 5Fam-KLTRAETV-K5Tamra assay buffer: 50 mM Tris, pH 7.5, 100 mM NaCl, 5 mM CaCl2, 0.1 mg/mL BSA, 0.03% CHAPS. Assay buffer was prepared by mixing all ingredients fresh. 5Fam-KLTRAETV-K5Tamra peptide substrate was first prepared at 10 mM in 100% DMSO, then diluted to 3 mM in 100% DMSO. Assay buffer was then added directly to the 3 mM stock of substrate to prepare the 30 μM 2× working concentration (15 μM final concentration). The 2× Factor XIa stock solution was prepared by diluting 6.562 μM stock in 1× assay buffer for a […].
Test compound(s) were run in an 11-point, 3-fold serial dilution with a final top compound concentration of 100 nM. Final DMSO in assay was 2%. FXIa was preincubated with compound for 30-minutes and then substrate was added to initiate the reaction. The assay was run with either end point (EP) reads at 30 min or kinetic (KIN) reads at 5 min intervals over 30 minutes. The time course was linear using 100 μM FXIa greater than 30 minutes. More specifically, the assay was run as follows: • 100 nL of 0.01 mM test compound was dispensed into black 384-well non-binding Greiner BioOne 784900 plate for 0.1 μM final concentration; • 5 μL of 1× assay buffer was dispensed to column 24 (low control) and 5 μL 2× Factor XIa solution was dispensed to columns 1-23 (column 23 high control); • the plate was centrifuged with a “cover” plate at 500 rpm for 1 min • the plate was pre-incubated for 30 minutes at room temperature with plate covered; • 5 μL of 2× 5Fam-KLTRAETV-K5Tamra peptide substrate was dispensed into the entire plate, columns 1-24; • the plate was centrifuged with a “cover” plate at 500 rpm for 1 min; • the plate was read monitoring fluorescence intensity on the BMG PHERAStar at room temperature, using fluorescence module 485 nm/520 nm.
(§1) Percent inhibition (IC50) curves were generated per compound tested, and data was analyzed using a 4-parameter logistic fit using GeneData Screener. The relative fluorescence unit (RFU) values were normalized to percent inhibition using the following equation:
[formula] • where LC—low control=mean signal of no Factor XIa or 100% inhibition of Factor XIa; HC—high control=mean signal of Factor XIa+5Fam-KLTRAETV-K5Tamra peptide substrate with DMSO only.
(§2) An 11-point dose response curve for the test compound(s) was generated using GENDATA to determine IC50 value based on the following equation:
(§3) [formula] • where Y is the % inhibition in the presence of X inhibitor concentration, Top=high control=mean signal of Factor XIa+5Fam-KLTRAETV-K5Tamra peptide substrate with DMSO only; Bottom=low control—mean signal of no Factor XIa or 100% inhibition of Factor XIa; HillSlope—Hill coefficient; and IC50=concentration of compound with 50% inhibition in relation to top/high control.
Representative compounds of formula (I) of the present invention were tested according to the procedure described in Biological Example 1 and Biological Example 2 above, with results as listed in Table 3, below. […]

human plasma kallikrein = human plasma kallikrein (Homo sapiens, UniProt P03952); experiment: Kallikrein inhibition assay utilizing a quenched AMC peptide substrate (FLINT); format: biochemical
Experimental: Biological Example 2: Kallikrein Inhibition Assay Utilizing a Quenched AMC Peptide Substrate
A fluorescence intensity (FLINT) based assay was used to monitor inhibition of human plasma kallikrein. The peptide substrate, Z-Gly-Pro-Arg-AMC (Purchased from Bachem; Catalog #I-1150) was chosen based on its relatively low KM for kallikrein which enables running the assay at lower substrate concentrations to control background fluorescence. The kinetic parameters for this substrate were determined by fitting titration data to the Michaelis-Menten equation yielding a KM=40 μm, kcat=0.76 s^−1, and kcat/KM=18932 M^−1s^−1.
The Kallikrein FLINT assay was used with the following Z-Gly-Pro-Arg-AMC assay buffer: 50 mM Tris, pH 7.5, 100 mM NaCl, 5 mM CaCl2, 0.1 mg/mL BSA, 0.03% CHAPS. Assay buffer was prepared by mixing all ingredients fresh. 2× Z-Gly-Pro-Arg-AMC peptide substrate was prepared by diluting 10 mM stock into 1× assay buffer for a 100 μM working concentration (50 μM final concentration). The 2× kallikrein stock solution was prepared by diluting 14.76 μM stock in 1× assay buffer for a 4 nM working stock solution (2 nM final concentration).
Test compound(s) were run in an 11-point, 3-fold serial dilution with a final top compound concentration of 1 μM. Final DMSO in assay was 2%. Plasma kallikrein was pre-incubated for 30-minute with compound and then 50 μM substrate was added to initiate the reaction. The assay was run with either end point (EP) reads at 30 min or kinetic (KIN) reads at 5 min intervals over 30 minutes. The time course was linear using 2 nM kallikrein greater than 30 minutes. More specifically, the assay was run as follows: • 100 nL of 0.1 mM test compound was dispensed into black 384-well non-binding Greiner BioOne 784900 plate for 1 μM final concentration; • 5 μL of 1× assay buffer was dispensed to columns 24 (low control) and 5 μL 2× human kallikrein enzyme solution was dispensed to columns 1-23 (column 23 high control); • the plate was centrifuged with a “cover” plate at 500 rpm for 1 min • the plate was pre-incubated for 30 minutes at room temperature with plate covered; • 5 μL of 2× Z-Gly-Pro-Arg-AMC peptide substrate was dispensed into the entire plate, columns 1-24; • the plate was centrifuged with a “cover” plate at 500 rpm for 1 min; • the plate was read monitoring fluorescence intensity on the BMG PHERAStar at room temperature, using fluorescence module 340 nm/440 nm.
as §1
% inhibition=((HC−LC)−(compound−LC)/(HC−LC))*100 • where LC—low control=mean signal of human kallikrein enzyme or 100% inhibition of human kallikrein enzyme; HC—high control=mean signal of Factor XIa+Z-Gly-Pro-Arg-AMC peptide substrate with DMSO only.
as §2
as §3, with “Y=Bottom+(Top−Bottom)/(1+10^((log IC50−X)*HillSlope))” for “[formula]”, “human kallikrein enzyme+Z-Gly-Pro-Arg-AMC” for “Factor XIa+5Fam-KLTRAETV-K5Tamra”, “human kallikrein enzyme” for “Factor XIa”, “human kallikrein enzyme;” for “Factor XIa;”
Representative compounds of formula (I) of the present invention were tested according to the procedure described in Biological Example 1 and Biological Example 2 above, with results as listed in Table 3, below. Results listed in the (ER) column were measured using endpoint reads where a single fluorescence reading was measured for each well at a 30 min timepoint. […]

[1] = kinetic reads at 5 min intervals over 30 min, 30 min preincubation, read-out: FXIa (KIN) IC50
[2] = kinetic reads, unit μM, read-out: Kallikrein (KIN) IC50
[3] = kinetic reads at 5 min intervals over 30 min, 30 min preincubation, read-out: Kallikrein (KIN) IC50

Chain of human plasma kallikrein (P03952 391-638 limits assumed): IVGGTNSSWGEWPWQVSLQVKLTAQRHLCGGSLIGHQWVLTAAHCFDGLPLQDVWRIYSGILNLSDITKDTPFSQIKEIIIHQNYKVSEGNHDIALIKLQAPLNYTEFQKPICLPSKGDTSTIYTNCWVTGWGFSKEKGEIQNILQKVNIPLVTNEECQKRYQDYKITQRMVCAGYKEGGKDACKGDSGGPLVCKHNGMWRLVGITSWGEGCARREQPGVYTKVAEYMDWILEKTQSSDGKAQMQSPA
Chain of human plasma kallikrein (P03952 20-390 partner limits assumed): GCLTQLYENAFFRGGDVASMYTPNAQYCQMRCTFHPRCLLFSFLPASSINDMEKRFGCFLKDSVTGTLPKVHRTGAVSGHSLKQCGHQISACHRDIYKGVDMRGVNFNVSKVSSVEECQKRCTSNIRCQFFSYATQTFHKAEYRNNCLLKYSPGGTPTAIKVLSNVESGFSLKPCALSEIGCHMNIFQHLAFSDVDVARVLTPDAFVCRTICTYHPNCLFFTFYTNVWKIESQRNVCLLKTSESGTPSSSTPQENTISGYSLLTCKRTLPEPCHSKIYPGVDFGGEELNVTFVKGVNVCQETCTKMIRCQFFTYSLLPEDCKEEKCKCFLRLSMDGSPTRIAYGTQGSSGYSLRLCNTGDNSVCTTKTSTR
Chain of Factor XIa (P03951 388-625 limits assumed): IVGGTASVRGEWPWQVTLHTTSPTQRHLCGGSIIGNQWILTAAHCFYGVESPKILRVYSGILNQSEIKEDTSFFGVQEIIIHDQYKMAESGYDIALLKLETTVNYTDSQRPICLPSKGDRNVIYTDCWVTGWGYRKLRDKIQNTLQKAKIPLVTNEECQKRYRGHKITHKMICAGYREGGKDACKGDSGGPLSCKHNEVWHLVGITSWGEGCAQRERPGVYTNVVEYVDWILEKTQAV
Chain of Factor XIa (P03951 19-387 partner limits assumed): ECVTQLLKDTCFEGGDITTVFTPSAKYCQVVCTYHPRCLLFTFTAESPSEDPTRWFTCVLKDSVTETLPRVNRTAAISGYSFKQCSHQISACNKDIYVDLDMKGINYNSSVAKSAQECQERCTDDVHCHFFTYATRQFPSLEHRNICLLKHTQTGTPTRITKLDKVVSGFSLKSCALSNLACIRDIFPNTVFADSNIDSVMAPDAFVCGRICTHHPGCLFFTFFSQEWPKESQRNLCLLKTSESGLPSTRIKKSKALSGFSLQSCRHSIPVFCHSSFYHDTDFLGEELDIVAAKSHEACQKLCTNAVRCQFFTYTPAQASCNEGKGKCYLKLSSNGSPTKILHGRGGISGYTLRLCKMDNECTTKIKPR

SMILES | IC50 (Factor XIa; [1]) [µM] | IC50 (human plasma kallikrein; [2]) [µM] | IC50 (human plasma kallikrein; [3]) [µM] | other results
O=C(NC1CC1)c1ccc(-c2cn(C(CC3CC3)c3ccc(-c4cc(Cl)ccc4-n4cnnn4)c[n+]3[O-])nn2)cc1 (centres unmarked) [T2, 5-(5-Chloro-2-(1H-tetrazol-1-yl)phenyl)-2-(2-cyclopropyl-1-(4-(4-(cyclopropylcarbamoyl)phenyl)-1H-1,2,3-triazol-1-yl)ethyl)pyridine 1-oxide] | – | – | – | IC50 (Factor XIa; end point read at 30 min, 30 min preincubation, read-out: FXIa (EP) IC50): 0.0381 µM; IC50 (human plasma kallikrein; end point read at 30 min, 30 min preincubation, read-out: Kallikrein (EP) IC50): 0.367 µM
Cn1nncc1-c1cn([C@@H](CCOC(F)F)c2ccc(-c3c(-n4cc(C(F)(F)F)nn4)ccc(Cl)c3F)c[n+]2[O-])cn1 [M8, (S)-5-(3-Chloro-2-fluoro-6-(4-(trifluoromethyl)-1H-1,2,3-triazol-1-yl)phenyl)-2-(3-(difluoromethoxy)-1-(4-(1-methyl-1H-1,2,3-triazol-5-yl)-1H-imidazol-1-yl)propyl)pyridine 1-oxide] | > 0.2 | > 20 | – | –
[O-][n+]1cc(-c2c(-n3cc(C(F)(F)F)nn3)ccc(Cl)c2F)ccc1[C@H](CCOC(F)F)n1cc(-c2cnnn2C(F)F)nn1 [T9, (S)-5-(3-Chloro-2-fluoro-6-(4-(trifluoromethyl)-1H-1,2,3-triazol-1-yl)phenyl)-2-(3-(difluoromethoxy)-1-(3′-(difluoromethyl)-1H,3′H-[4,4′-bi(1,2,3-triazol)]-1-yl)propyl)pyridine 1-oxide] | > 0.1 | > 1 | – | –
[O-][n+]1cc(-c2c(-n3cc(C(F)(F)F)nn3)ccc(Cl)c2F)ccc1[C@H](CCOC(F)F)n1cnc(-c2ncnn2C(F)F)c1 [M6, (S)-5-(3-Chloro-2-fluoro-6-(4-(trifluoromethyl)-1H-1,2,3-triazol-1-yl)phenyl)-2-(3-(difluoromethoxy)-1-(4-(1-(difluoromethyl)-1H-1,2,4-triazol-5-yl)-1H-imidazol-1-yl)propyl)pyridine 1-oxide] | – | > 10 | – | IC50 (Factor XIa; kinetic reads, unit μM printed in the cell, read-out: FXIa (KIN) IC50): > 10 µM
Cn1ncnc1-c1cn(C(CCOC(F)F)c2ccc(-c3c(-n4cc(C(F)(F)F)nn4)ccc(Cl)c3F)c[n+]2[O-])cn1 (centres unmarked) [M9, 5-(3-Chloro-2-fluoro-6-(4-(trifluoromethyl)-1H-1,2,3-triazol-1-yl)phenyl)-2-(3-(difluoromethoxy)-1-(4-(1-methyl-1H-1,2,4-triazol-5-yl)-1H-imidazol-1-yl)propyl)pyridine 1-oxide] | 0.0043 | – | 0.543 | –
COC(=O)Nc1ccc(-c2cn(C(CC3CC3)c3ccc(-c4c(-n5cnnn5)ccc(Cl)c4F)c[n+]3[O-])cn2)cc1 (centres unmarked) [M3, 5-(3-Chloro-2-fluoro-6-(1H-tetrazol-1-yl)phenyl)-2-(2-cyclopropyl-1-(4-(4-((methoxycarbonyl)amino)phenyl)-1H-imidazol-1-yl)ethyl)pyridine 1-oxide] | 0.0085 | – | 0.169 | –
Cn1nncc1-c1cn([C@H](CC2CC2)c2ccc(-c3c(-n4cnnn4)ccc(Cl)c3F)c[n+]2[O-])nn1 [T6, (R)-5-(3-Chloro-2-fluoro-6-(1H-tetrazol-1-yl)phenyl)-2-(2-cyclopropyl-1-(3′-methyl-1H,3′H-[4,4′-bi(1,2,3-triazol)]-1-yl)ethyl)pyridine 1-oxide] | 0.0034 | – | 0.312 | –
Cn1nncc1-c1cn([C@H](CCOC(F)F)c2ccc(-c3c(-n4cc(Cl)nn4)ccc(Cl)c3F)c[n+]2[O-])cn1 [M12, (R)-5-(3-Chloro-6-(4-chloro-1H-1,2,3-triazol-1-yl)-2-fluorophenyl)-2-(3-(difluoromethoxy)-1-(4-(1-methyl-1H-1,2,3-triazol-5-yl)-1H-imidazol-1-yl)propyl)pyridine 1-oxide] | 0.0003 | – | 0.0159 | –
Cn1nncc1-c1cn([C@@H](CCOC(F)F)c2ccc(-c3c(-n4cc(Cl)nn4)ccc(Cl)c3F)c[n+]2[O-])cn1 [M11, (S)-5-(3-Chloro-6-(4-chloro-1H-1,2,3-triazol-1-yl)-2-fluorophenyl)-2-(3-(difluoromethoxy)-1-(4-(1-methyl-1H-1,2,3-triazol-5-yl)-1H-imidazol-1-yl)propyl)pyridine 1-oxide] | > 0.2 | > 20 | – | –
[2H]C([2H])([2H])n1nccc1-c1cn(C(CCOC(F)F)c2ccc(-c3c(-n4cc(C(F)(F)F)nn4)ccc(Cl)c3F)c[n+]2[O-])cn1 (single isomer, unassigned) [M16, (S*)-5-(3-Chloro-2-fluoro-6-(4-(trifluoromethyl)-1H-1,2,3-triazol-1-yl)phenyl)-2-(3-(difluoromethoxy)-1-(4-(1-(methyl-d3)-1H-pyrazol-5-yl)-1H-imidazol-1-yl)propyl)pyridine 1-oxide] | 0.0005 | – | 0.0317 | –
